Data reported in the supplement of paper PMC10307832.

Compound: C=C(c1ccc(C(=O)O)cc1)c1cc2c(cc1C)C(C)(C)CCC2(C)C [Bexarotene] + COc1cc2c(Oc3ccc(NC(=O)C4(C(=O)Nc5ccc(F)cc5)CC4)cc3F)ccnc2cc1OCCCN1CCOCC1 [Foretinib] (partner 0.25 µM)
Assay: relative viability (nuclei count vs DMSO), 5 days (fraction); higher = more cells survive
How it was run: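 Each reported value is a median over duplicate plates. It expresses relative viability: treated-well nuclei count divided by vehicle-well nuclei count. Lung cancer cell lines in 1536-well plates were dosed by pin tool a day after seeding, alone with one drug or with a fixed anchor-drug dose plus five library-drug doses (not always all listed) in √10 steps, and nuclei were counted after 5 days.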

Cell Line: UMC-11
- relative viability (first compound 0.08 µM): 1.1
- relative viability (first compound 0.253 µM): 1.01
- relative viability (first compound 0.8 µM): 0.946
- relative viability (first compound 2.53 µM): 1.07
- relative viability (first compound 8 µM): 0.956

Cell Line: NCI-H1993
- relative viability (first compound 0.08 µM): 0.807
- relative viability (first compound 0.253 µM): 0.732
- relative viability (first compound 0.8 µM): 0.768
- relative viability (first compound 2.53 µM): 0.725
- relative viability (first compound 8 µM): 0.766

Cell Line: NCI-H596
- relative viability (first compound 0.08 µM): 0.781
- relative viability (first compound 0.253 µM): 0.61
- relative viability (first compound 0.8 µM): 0.813
- relative viability (first compound 2.53 µM): 0.853
- relative viability (first compound 8 µM): 0.858

Cell Line: NCI-H1793
- relative viability (first compound 0.08 µM): 0.732
- relative viability (first compound 0.253 µM): 0.813
- relative viability (first compound 0.8 µM): 0.763
- relative viability (first compound 2.53 µM): 0.629
- relative viability (first compound 8 µM): 0.676

Cell Line: NCI-H1563
- relative viability (first compound 0.08 µM): 1.04
- relative viability (first compound 0.253 µM): 0.868
- relative viability (first compound 0.8 µM): 0.824
- relative viability (first compound 2.53 µM): 0.989
- relative viability (first compound 8 µM): 0.85

Cell Line: NCI-H1395
- relative viability (first compound 0.08 µM): 1.07
- relative viability (first compound 0.253 µM): 1.02
- relative viability (first compound 0.8 µM): 1.04
- relative viability (first compound 2.53 µM): 0.949
- relative viability (first compound 8 µM): 1.09

Cell Line: NCI-H1299
- relative viability (first compound 0.08 µM): 1.06
- relative viability (first compound 0.253 µM): 1.18
- relative viability (first compound 0.8 µM): 1.05
- relative viability (first compound 2.53 µM): 1.1
- relative viability (first compound 8 µM): 1.08

Cell Line: HCC-827
- relative viability (first compound 0.08 µM): 1.07
- relative viability (first compound 0.253 µM): 1.02
- relative viability (first compound 0.8 µM): 0.992
- relative viability (first compound 2.53 µM): 1.09
- relative viability (first compound 8 µM): 0.976

Cell Line: ChaGo-K-1
- relative viability (first compound 0.08 µM): 1.07
- relative viability (first compound 0.253 µM): 0.963
- relative viability (first compound 0.8 µM): 0.976
- relative viability (first compound 2.53 µM): 0.936
- relative viability (first compound 8 µM): 0.919

Cell Line: NCI-H2228
- relative viability (first compound 0.08 µM): 0.971
- relative viability (first compound 0.253 µM): 1.08
- relative viability (first compound 0.8 µM): 0.698
- relative viability (first compound 2.53 µM): 0.897
- relative viability (first compound 8 µM): 0.837

Cell Line: NCI-H2170
- relative viability (first compound 0.08 µM): 1.03
- relative viability (first compound 0.253 µM): 1.03
- relative viability (first compound 0.8 µM): 0.983
- relative viability (first compound 2.53 µM): 0.922
- relative viability (first compound 8 µM): 0.977

Cell Line: EMC-BAC-2
- relative viability (first compound 0.08 µM): 0.912
- relative viability (first compound 0.253 µM): 1.09
- relative viability (first compound 0.8 µM): 0.998
- relative viability (first compound 2.53 µM): 0.964
- relative viability (first compound 8 µM): 0.993

Cell Line: NCI-H2342
- relative viability (first compound 0.08 µM): 1.01
- relative viability (first compound 0.253 µM): 1.02
- relative viability (first compound 0.8 µM): 1.09
- relative viability (first compound 2.53 µM): 1.12
- relative viability (first compound 8 µM): 1.05

Cell Line: A549
- relative viability (first compound 0.08 µM): 1.01
- relative viability (first compound 0.253 µM): 0.875
- relative viability (first compound 0.8 µM): 0.856
- relative viability (first compound 2.53 µM): 0.864
- relative viability (first compound 8 µM): 0.718

Cell Line: NCI-H23
- relative viability (first compound 0.08 µM): 0.888
- relative viability (first compound 0.253 µM): 1.06
- relative viability (first compound 0.8 µM): 0.921
- relative viability (first compound 2.53 µM): 1.01
- relative viability (first compound 8 µM): 0.785

Cell Line: RERF-LC-KJ
- relative viability (first compound 0.08 µM): 0.839
- relative viability (first compound 0.253 µM): 0.823
- relative viability (first compound 0.8 µM): 0.715
- relative viability (first compound 2.53 µM): 0.795
- relative viability (first compound 8 µM): 0.777

Cell Line: NCI-H358
- relative viability (first compound 0.08 µM): 0.8
- relative viability (first compound 0.253 µM): 0.929
- relative viability (first compound 0.8 µM): 0.708
- relative viability (first compound 2.53 µM): 0.818
- relative viability (first compound 8 µM): 0.722

Cell Line: LC-2-ad
- relative viability (first compound 0.08 µM): 0.976
- relative viability (first compound 0.253 µM): 1.01
- relative viability (first compound 0.8 µM): 0.969
- relative viability (first compound 2.53 µM): 0.982
- relative viability (first compound 8 µM): 0.893

Cell Line: HCC-15
- relative viability (first compound 0.08 µM): 1.09
- relative viability (first compound 0.253 µM): 1.07
- relative viability (first compound 0.8 µM): 1.05
- relative viability (first compound 2.53 µM): 1.05
- relative viability (first compound 8 µM): 0.996

Cell Line: NCI-H2405
- relative viability (first compound 0.08 µM): 1.17
- relative viability (first compound 0.253 µM): 1.05
- relative viability (first compound 0.8 µM): 0.758
- relative viability (first compound 2.53 µM): 1.05
- relative viability (first compound 8 µM): 1.02

Cell Line: LXF-289
- relative viability (first compound 0.08 µM): 1.18
- relative viability (first compound 0.253 µM): 1.02
- relative viability (first compound 0.8 µM): 1.02
- relative viability (first compound 2.53 µM): 1.09
- relative viability (first compound 8 µM): 1.22

Cell Line: CAL-12T
- relative viability (first compound 0.08 µM): 1.31
- relative viability (first compound 0.253 µM): 1.1
- relative viability (first compound 0.8 µM): 1.19
- relative viability (first compound 2.53 µM): 1.03
- relative viability (first compound 8 µM): 0.977

Cell Line: COR-L23
- relative viability (first compound 0.08 µM): 0.999
- relative viability (first compound 0.253 µM): 1.06
- relative viability (first compound 0.8 µM): 0.908
- relative viability (first compound 2.53 µM): 0.952
- relative viability (first compound 8 µM): 1.05

Cell Line: NCI-H1755
- relative viability (first compound 0.08 µM): 0.934
- relative viability (first compound 0.253 µM): 0.953
- relative viability (first compound 0.8 µM): 0.885
- relative viability (first compound 2.53 µM): 0.937
- relative viability (first compound 8 µM): 0.852

Cell Line: NCI-H1437
- relative viability (first compound 0.08 µM): 1.26
- relative viability (first compound 0.253 µM): 1.32
- relative viability (first compound 0.8 µM): 1.22
- relative viability (first compound 2.53 µM): 1.23
- relative viability (first compound 8 µM): 1.26

Cell Line: NCI-H2085
- relative viability (first compound 0.08 µM): 0.963
- relative viability (first compound 0.253 µM): 0.692
- relative viability (first compound 0.8 µM): 0.804
- relative viability (first compound 2.53 µM): 0.862
- relative viability (first compound 8 µM): 0.94

Cell Line: IA-LM
- relative viability (first compound 0.08 µM): 1.03
- relative viability (first compound 0.253 µM): 1.14
- relative viability (first compound 0.8 µM): 0.98
- relative viability (first compound 2.53 µM): 0.935
- relative viability (first compound 8 µM): 0.93

Cell Line: H3255
- relative viability (first compound 0.08 µM): 1.01
- relative viability (first compound 0.253 µM): 0.821
- relative viability (first compound 0.8 µM): 0.906
- relative viability (first compound 2.53 µM): 0.779
- relative viability (first compound 8 µM): 0.748

Cell Line: NCI-H650
- relative viability (first compound 0.08 µM): 0.974
- relative viability (first compound 0.253 µM): 0.995
- relative viability (first compound 0.8 µM): 0.958
- relative viability (first compound 2.53 µM): 0.991
- relative viability (first compound 8 µM): 0.996

Cell Line: LCLC-103H
- relative viability (first compound 0.08 µM): 0.753
- relative viability (first compound 0.253 µM): 0.665
- relative viability (first compound 0.8 µM): 0.695
- relative viability (first compound 2.53 µM): 0.814
- relative viability (first compound 8 µM): 0.677

Cell Line: LOU-NH91
- relative viability (first compound 0.08 µM): 0.88
- relative viability (first compound 0.253 µM): 0.89
- relative viability (first compound 0.8 µM): 0.84
- relative viability (first compound 2.53 µM): 0.878
- relative viability (first compound 8 µM): 0.786

Cell Line: NCI-H1650
- relative viability (first compound 0.08 µM): 1.13
- relative viability (first compound 0.253 µM): 0.988
- relative viability (first compound 0.8 µM): 1.09
- relative viability (first compound 2.53 µM): 1.18
- relative viability (first compound 8 µM): 1.11

Cell Line: NCI-H3122
- relative viability (first compound 0.08 µM): 0.99
- relative viability (first compound 0.253 µM): 0.988
- relative viability (first compound 0.8 µM): 0.957
- relative viability (first compound 2.53 µM): 0.9
- relative viability (first compound 8 µM): 0.975

Cell Line: PC-3 [JPC-3]
- relative viability (first compound 0.08 µM): 1.13
- relative viability (first compound 0.253 µM): 0.949
- relative viability (first compound 0.8 µM): 0.941
- relative viability (first compound 2.53 µM): 0.99
- relative viability (first compound 8 µM): 0.891

Cell Line: Calu-6
- relative viability (first compound 0.08 µM): 0.973
- relative viability (first compound 0.253 µM): 0.901
- relative viability (first compound 0.8 µM): 0.752
- relative viability (first compound 2.53 µM): 0.886
- relative viability (first compound 8 µM): 1.02

Cell Line: NCI-H1651
- relative viability (first compound 0.08 µM): 0.86
- relative viability (first compound 0.253 µM): 0.98
- relative viability (first compound 0.8 µM): 0.805
- relative viability (first compound 2.53 µM): 0.933
- relative viability (first compound 8 µM): 0.84

Cell Line: NCI-H2087
- relative viability (first compound 0.08 µM): 1.3
- relative viability (first compound 0.253 µM): 1.1
- relative viability (first compound 0.8 µM): 1.12
- relative viability (first compound 2.53 µM): 0.982
- relative viability (first compound 8 µM): 1.03
